Laboratory results published in patent US20190008797A1, “ESTROGEN RECEPTOR ALPHA COLIGANDS, AND METHODS OF USE THEREOF” (priority 2016, published 2019).
Entries after “also recorded” stand apart in the source; their conditions may differ. Where two headings read alike, the source gives them in different places.

Columns and labels:
purified ERα = purified ERα (Homo sapiens, UniProt P03372); assay: Fluorescent polarization with purified ERα; assay type: binding
U2OS-ERα cells = assay: NKG2E mRNA real-time PCR in U2OS-ERα cells; assay type: cell-based, human
Description: (§1) (FIG. 1a) Chemical structure of 2′, 3′, 4′-THC. (FIG. 1b) U2OS cells cotransfected with ERE tk-luciferase and ERα (left panel) or ERβ (right panel). After transfection the cells were treated for 24 hours with 10 nM estradiol and 5 μM 2′, 3′, 4′-THC alone or in combination. Cells were lysed and luciferase activity was measured. RLU is relative light units. Error bars are the Mean±SEM. **P≤0.01. […] The total cellular RNA was extracted and real-time PCR for KRT19 mRNA was performed as described in Materials and Methods. […] Error bars are ±SEM. *P≤0.05, **** P≤0.0001.
(FIGS. 6a, 6b) Gene expression of (FIG. 6a) KRT73 and (FIG. 6b) NKG2E in U2OS-ERα cells treated with 10 nM estradiol, 5 μM 2′, 3′, 4′-THC, 1μM ICI alone or in combination for 24 hours. […] Error bars are ±SEM. […] After transfection, luciferase activities were measured as described in the Methods. RLU is relative light units and the data shown are mean ±SEM. (FIG. 6c). […] After transfection, luciferase activities were measured as described in the Methods. RLU is relative light units and the data shown are mean ±SEM (FIG. 6d).

ERα LBD = target: T1, ERα LBD (Homo sapiens, UniProt P03372); assay type: binding; conditions: 5 μM 2′,3′,4′-THC alone
T1 construct: Purified ERα LBD containing amino acids 315-545 used by Brzozowski et al; histidine-tag; purchased GenScript
T1 sequence (P03372 315-545): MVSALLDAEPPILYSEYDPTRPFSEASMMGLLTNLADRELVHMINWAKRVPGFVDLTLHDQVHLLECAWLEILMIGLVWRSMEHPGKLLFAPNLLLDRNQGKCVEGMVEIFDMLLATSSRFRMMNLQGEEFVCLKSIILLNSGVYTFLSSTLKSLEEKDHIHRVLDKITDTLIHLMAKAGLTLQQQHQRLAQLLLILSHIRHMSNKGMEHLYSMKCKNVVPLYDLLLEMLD

MCF-7 cells [1] = assay: Flow cytometry of cellular DNA content in MCF-7 cells; assay type: cell-based, human; conditions: for IC50: Homo sapiens, MCF7, 24 h
Description: The cells were then washed with PBS, detached with trypsin and collected by centrifugation. The cell pellets were washed with cold PBS followed by centrifuge at room temperature and re-suspended in 500 μl PBS containing […] propidium iodide, 0.1% of Triton™ X-100, 0.1% of sodium citrate, and 10 μg/ml of RNase. Samples were then run on Cytomics™ FC-500 (Beckman Coulter) in the cell cytometry facility at UC Berkeley and data was analyzed using FlowJo 7.6.5.

mouse uterus = assay: Ovariectomized (OVX) mouse model, osmotic pump; assay type: in vivo; conditions: OVX mice
Description: 8 week old C57b1/6J female ovariectomized or intact mice were purchased from Jackson Laboratories, Sacramento, Calif. Mice were housed and maintained according to OLAC standard procedures in the NAF facility at UC Berkeley, Calif. All mice were fed a soy-free chow diet 2916.15 (Harlan Laboratories, Livermore, Calif.) starting one week before osmotic pump implantation or 2′, 3′, 4′-THC injection. Pumps Model 2006 were purchased from Alzet and filled with vehicle, 1 μg […], 2 mg of 2′, 3′, 4′-THC or the combination of 2′, 3′, 4′-THC and estradiol. All drugs were dissolved in sterile vehicle consisting of 50% dimethylsulfoxide (DMSO), 25% ETOH and 25% deionized water. Pumps were handled with sterile gloves and filled using a 27 gauge filling tube and 1 mL syringe. All pumps were placed in 1X PBS in 15 mL sterile conical tubes and incubated overnight at 37° . Pumps were surgically implanted into 8 week old C57b1/6J female ovariectomized mice (Jackson Laboratory, Sacramento, Calif.) posterior to the scapula and left for a duration of 4 weeks. Intact mice were injected intraperitoneal with 2′, 3′, 4′-THC every day for 3 weeks. Mice were weighed once a week for the duration of the experiment. The intraperitoneal gonadal fat was removed and weighed. Uterine tissue was collected, fluid drained and then weighed.
Tissues were dissected and immediately frozen in liquid nitrogen. Before RNA isolation, tissues were homogenized in PureZOL™ using the MP FastPrep™-24 for 40 seconds.
Uterine Tissue Slide Preparation Uterine tissue was removed and trimmed of excess adipose tissue. Tissues were fixed in formalin for 24 hours then transferred to 50% ETOH for 1 hour followed by 70% ethanol (ETOH) for another hour. After fixation tissues were sent to Histopathology Reference Laboratory, Hercules Calif. where they were paraffin embedded, sectioned and stained with hematoxylin and eosin for morphological exam
FIGS. 5a-5h. 2′, 3′, 4′-THC acts as antagonist in the mouse uterus. Uterine weights of intact (FIG. 5a) and OVX (FIG. 5b) mice. […] (FIG. 5h) Total body weight of OVX mice after 4 week treatment. Error bars are ±SEM.

MCF-7 cells [2] = assay: MCF-7 cell proliferation (cell counting); conditions: 5 days
ERα [3] = target: T2, ERα (Homo sapiens, UniProt P03372); assay: ERE-tk luciferase transfection assay, U2OS cells cotransfected with ERα; assay type: cell-based; parameters: expressed in transfected cells; host or cells: U2OS
T2 sequence (P03372 whole entry): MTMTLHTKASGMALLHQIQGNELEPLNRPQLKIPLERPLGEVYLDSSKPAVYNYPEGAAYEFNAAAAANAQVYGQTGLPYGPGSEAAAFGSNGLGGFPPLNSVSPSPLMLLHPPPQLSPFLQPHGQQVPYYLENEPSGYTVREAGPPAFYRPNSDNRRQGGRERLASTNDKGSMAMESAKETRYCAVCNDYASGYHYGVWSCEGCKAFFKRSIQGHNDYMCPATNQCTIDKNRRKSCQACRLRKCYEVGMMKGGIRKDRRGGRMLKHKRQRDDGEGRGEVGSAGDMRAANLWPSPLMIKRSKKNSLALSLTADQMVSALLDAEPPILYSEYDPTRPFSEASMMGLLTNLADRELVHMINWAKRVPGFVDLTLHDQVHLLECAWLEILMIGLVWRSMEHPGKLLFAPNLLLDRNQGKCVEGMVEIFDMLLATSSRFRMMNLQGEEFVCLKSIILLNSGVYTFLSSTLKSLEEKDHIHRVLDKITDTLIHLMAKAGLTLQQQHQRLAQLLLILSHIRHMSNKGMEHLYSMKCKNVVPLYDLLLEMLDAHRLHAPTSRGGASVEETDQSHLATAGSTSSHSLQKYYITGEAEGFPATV
Description: as §1

ERα [4] = target: T2, ERα; assay: Competitive [3H]-E2 binding in U2OS-ERα cells; parameters: expressed in transfected cells; host or cells: U2OS

purified ERα, sequence (P03372 whole entry): as above

O=C(/C=C/c1ccccc1)c1ccc(O)c(O)c1O [2′, 3′, 4′-THC, 2′, 3′, 4′-trihydroxychalcone]
IC50 relative to E2 (higher) (purified ERα): approximately 10,000 fold
NKG2E gene expression, compound alone (U2OS-ERα cells; 10 nM E2, 5 μM 2′,3′,4′-THC, 1 μM tamoxifen or raloxifene, 24 hours): no effect
synergy in combination with tamoxifen or raloxifene (U2OS-ERα cells; 5 μM + 1 μM tamoxifen or raloxifene): No synergy
effect on E2-induced NKG2E gene expression (U2OS-ERα cells; in combination with 10 nM E2, 24 hours): synergistic activation
melting temperature of ERα LBD (ERα LBD): no effect
effect on E2-treated cells by DNA content / cell cycle (MCF-7 cells [1]; 24 hours): anti-proliferative action; also recorded: G1 cell cycle arrest
IC50 (MCF-7 cells [1]; read-out: IC50 for inhibition, G1 phase (cellular DNA content)): 2900 nM
IC50 (MCF-7 cells [1]; read-out: IC50 for inhibition, S-phase (cellular DNA content)): 2600 nM
H & E staining of uterus, effect on E2 response (mouse uterus; combination with E2, 4 weeks): inhibited the proliferative response
effect on E2-induced increase in uterine weight (mouse uterus; combination with E2, 4 weeks): blocked
effect on E2-induced increased uterine mRNA for LCN2 (mouse uterus; combination with E2, 4 weeks): antagonist effect
effect on E2-induced increased uterine mRNA for LTF (mouse uterus; combination with E2, 4 weeks): antagonist effect
effect on E2-induced increased uterine mRNA for SA100A9 (mouse uterus; combination with E2, 4 weeks): antagonist effect
effect on E2 decrease of gonadal adipose tissue fat (mouse uterus; combination with E2, 4 weeks): not blocked
uterine size / uterine weight, compound alone (mouse uterus; osmotic pump, 4 weeks): did not increase
effect on proliferation induced by E2 (MCF-7 cells [2]; 1, 5 and 10 μM, dose-dependent): blocked
MCF-7 cell proliferation, compound alone (MCF-7 cells [2]): no effect
luciferase activity with E2 (ERα [3]; ERα, 5 μM chalcone + 10 nM E2, 24 hours): synergistic increase
activity on ERE luciferase, compound alone (ERα [3]; U2OS cells transfected with ERα, 5 μM, 24 hours): inactive
competing concentration relative to concentration required for synergy (ERα [4]): 100 fold
increase of [3H]-E2 binding (ERα [4]; 5 or 10 μM, 5 nM [3H]-E2, 1 h, 37°C): ~2 fold
IC50 relative to E2 (higher) (ERα [4]; U2OS-ERα cells): approximately 10,000 fold
concentration at which the compound competes for [3H]-E2 binding (ERα [4]; no competition below, 5 nM [3H]-E2): 100 µM
